In paper PMC5034277, “High Fructose Diet inducing diabetes rapidly impacts olfactory epithelium and behavior in mice” (Scientific Reports, 2016):

Molecular target: T1, MOR23 (Mus musculus, UniProt Q62007)
T1 construct: gene Or10j5; native full-length receptor in GFP-labelled olfactory sensory neurons of gene-targeted MOR23-IRES-tauEGFP mice, intact epithelium; untagged (IRES reporter)
T1 sequence (Q62007 1-309): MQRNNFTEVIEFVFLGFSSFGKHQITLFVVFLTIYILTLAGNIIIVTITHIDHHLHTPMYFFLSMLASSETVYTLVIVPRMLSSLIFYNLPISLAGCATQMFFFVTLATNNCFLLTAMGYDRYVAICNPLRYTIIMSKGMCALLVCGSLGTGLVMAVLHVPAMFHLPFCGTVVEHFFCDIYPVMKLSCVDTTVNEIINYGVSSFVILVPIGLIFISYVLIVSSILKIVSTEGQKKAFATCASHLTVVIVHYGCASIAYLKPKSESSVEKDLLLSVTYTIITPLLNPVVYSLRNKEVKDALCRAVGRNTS
Experiment: perforated patch-clamp of dendritic knob, peak transduction current, Hill fit
Format: cell-based
Conditions: neurons of control-diet mice; holding -67 mV; Ringer pH 7.6; pressure-delivered odorant; whole-neuron transduction read-out; read-out: K1/2

EC50: 3 ± 1 µM
SMILES: CC(C)(O)CCCC1=CCC(C=O)CC1 (stereo not shown) [Lyral]
